Entries after “also recorded” stand apart in the source; their conditions may differ.
Key:
[1] = system: VirE2 trafficking in N. benthamiana (Nb308A) leaf epidermal cells; assay: Real-time VirE2-GFPcomp trafficking in agroinfiltrated tobacco leaf epidermal cells (split-GFP, confocal microscopy); type: cell-based; settings: for effect on VirE2 trafficking: infiltrated 6 h before observation, control 0.5% DMSO, FIG. 1b-d; for effect on real-time movement process of protein VirE2-GFP / toxicity as judged from VirE2-GFP movement: drug infiltrated into leaf six hours before observation, FIG. 11
Protocol: To visualize Agrobacterium-delivered VirE2, agroinfiltration was performed as described previously. Briefly, the bacteria were grown overnight; the cultures were diluted 50 times in MG/L and grown for 6 h. The bacteria were collected and re-suspended in infiltration buffer (10 mM MgCl2, 10 mM MES, pH5.5) to OD600=1.0. The bacterial suspension was infiltrated using a syringe to the underside of fully expended N. benthamiana leaves. The infiltrated plant was placed at 22° C. in a photoperiod of 16 h light/8 h dark. In order to observe a real-time effect of a compound or a drug on cells in real time, the inventor injected and infiltrated the compound or the drug into a leaf injected and infiltrated with A. tumefaciens EHA105virE2::GFP11 cell at an appropriate concentration, and observed with a UPLSAPO×60 N.A. 1.20 water immersion lens under a confocal microscope after six hours.
A PerkinElmer UltraView Vox Spinning Disk system with EM-CCD cameras was used for confocal microscopy. To observe leaf epidermis, agroinfiltrated leaf tissues were detached from N. benthamiana plants and put in 2% low-melting agarose gel on a glass slide with a coverslip. All images were taken in multiple focal planes (Z-stacks), and were processed to show the extended focus image or 3D opacity view by Volocity® 3D Image Analysis Software 6.2.1.
FIG. 1 illustrated Agrobacterium-delivered VirE2 trafficking on a cellular structure and entering the nucleus. A. tumefaciens EHA105virE2::GFP11 cells were infiltrated into transgenic N. benthamiana (Nb308A) leaves expressing both GFP1-10 and DsRed. […] Red, free DsRed; Green, VirE2-GFPcomp. (a) Time-lapse images of VirE2 aggregates trafficking along a linear cellular structure and entering the nucleus. Relative time is shown at the top right. Scale bar represents 20 μm. (b) Effects of chemical treatments on VirE2 trafficking. Chemicals were infiltrated into leaf samples 6 h before observation. Control, 0.5% DMSO. Colc, colchicine […] CytoD, cytochalasin D 20 μM. BFA, brefeldin A 100 μg/mL. Scale bar represents 20 μm. (c) Mean velocities of VirE2 aggregate movement after chemical treatments. Data analyzed with ANOVA and Tukey test, p<0.05. (d) Movement tracking of 20 individual VirE2 aggregates plotted to a common origin for each treatment.
FIG. 4 illustrated effects of ML-7 and myosin-tail overexpression on VirE2 trafficking. (a) Effect of ML-7, a myosin light chain kinase inhibitor, on VirE2 trafficking. A. tumefaciens EHA105virE2::GFP11 cells were infiltrated into transgenic N. benthamiana (Nb308A) leaves expressing both GFP1-10 and DsRed. The leaves were infiltrated with 100 μM ML-7 or 1% DMSO as control 4 h before imaging. […] Red, free DsRed; Green, VirE2-GFPcomp. The movement tracking of 20 individual VirE2 aggregates plotted to a common origin is shown below the figure. Scale bar represents 20 μm. (b) Mean velocity of the VirE2 aggregates after ML-7 treatment. (c) Effects of myosin-tail overexpression on VirE2 trafficking. A. tumefaciens EHA105virE2::GFP11 cells harboring a binary plasmid which encodes a tail fragment of respective myosins downstream of 35S promoter were infiltrated into transgenic N. benthamiana (Nb308A) leaves expressing both GFP1-10 and DsRed. […] Red, free DsRed; Green, VirE2-GFPcomp. The movement tracking of 20 individual VirE2 aggregates plotted to a common origin is shown below the figure. Scale bar represents 20 μm. (d) Mean velocity of VirE2 aggregate movement under overexpression of myosin tails. EV, empty vector control. (e) Western analysis of crude extracts from leaf samples agroinfiltrated with myosin-tail constructs. EV, empty vector control. Myosin tails were HA tagged. GFP1-10 was detected to assess the amount of sample loaded, as shown in the lower panel. […]
FIG. 11 illustrated an effect of a drug on VirE2 movement. A. tumefaciens EHA105virE2::GFP11 cell was injected and infiltrated into a transgenic tobacco line Nb308A constantly expressing a GFP1-10 and a DsRed. […]

[2] = system: Arabidopsis root transformation; assay: Root tumorigenesis assay (Arabidopsis root transformation with tumor inducing strain A348); type: cell-based, A. thaliana; settings: 10 μM ML-7 in co-cultivation mixture, FIG. 9
Protocol: Arabidopsis thaliana seeds were surface-sterilized with 0.5% NaClO solution and placed onto solidified ½×MS medium supplemented with 1% sucrose and 0.5 g L^−1 MES, pH 5.8. The plates were then incubated under a 16 hour photoperiod at 25° C. for 10 to 12 days. Roots from individual seedlings were cut into 3-5 mm segments and re-suspended in 1 ml fresh ½×MS medium containing A. tumefaciens cells at a concentration of 5×10^8 cell/ml unless specified otherwise. The mixtures were spread onto a solidified ½×MS plate and subsequently incubated at 25° C. for 2 days. The root segments were aligned onto ½×MS medium plates containing […] cefotaxime and kept at 25° C. for 4 weeks before photographing.
(§1) FIG. 9 illustrated effects of ML-7 treatment on root tumorigenesis assay. Root segments from 10-day old wild type A. thaliana seedlings were infected with a tumor inducing Agrobacterium stain A348. Tumors were photographed three weeks later. (a) Tumors formed with or without ML-7 treatment. ML-7 was added (10 μM) into the col-cultivation mixture and then washed off when the root segments were transferred onto new plates for tumor formation. (b) Tumorigenesis efficiency as determined by percentage of root segments with tumors. (c) Effect of ML-7 on root segment viability. (d) Effect of ML-7 on Agrobacterium viability

root segments = assay: Effect of ML-7 on root segment viability; type: cell-based, A. thaliana; settings: 10 μM ML-7 for 2 days, in the presence of hormones (auxin and cytokinin); FIG. 9c
Protocol: (§2) The inventor wants to determine if the VirE2 movement observed during our studies is directly relevant to Agrobacterium-mediated transformation. The present invention tested the effect of a selective myosin light chain kinase inhibitor ML-7 on Arabidopsis root transformation. Root segments were inoculated with a tumor inducing strain A348 in the presence of 10 μM ML-7. […] The present invention tested the toxicity of ML-7 on either the root or Agrobacterium growth at 10 μM ML-7. The root segments were exposed to 10 μM of ML-7 for 2 days, which was the time span for the bacterium-Arabidopsis co-cultivation.
as §1

Agrobacterium = assay: Effect of ML-7 on Agrobacterium viability; type: cell-based, A. tumefaciens; settings: 10 μM ML-7
Protocol: as §2, §1

microtubule = assay: Effects of chemicals on cellular structures: microtubule marker RFP-MBD; type: cell-based, N. benthamiana; settings: 500 μM colchicine at 6 h before imaging; tobacco leaves
Protocol: (§3) FIG. 5 illustrated effects of chemicals on respective cellular structures. Wild type N. benthamiana leaves were agroinfiltrated with binary plasmids encoding different fluorescent markers. The epidermal cells were examined at 2 d post agroinfiltration under confocal microscope with Olympus UPLSAPO 60×N.A. 1.20 water immersion objective. Upper panels a-c: leaf samples expressing subcellular markers. Lower panels d-f: leaf samples expressing subcellular markers were treated with chemicals. (a) RFP-MBD. MBD, Microtubule Binding Domain. (b) ER-mCherry. (c) tdTomato-ABD2. ABD, Actin Binding Domain. (d) RFP-MBD. Leaf samples were treated with 500 μM colchicine at 6 h before imaging. (e) ER-mCherry. Leaf samples were treated with 100 μg/mL BFA at 6 h before imaging. (f) tdTomato-ABD. Leaf samples were treated with 20 μM cytochalasin D at 6 h before imaging. Scale bar represents 20 μm.

ER = assay: Effects of chemicals on cellular structures: ER marker ER-mCherry; type: cell-based, N. benthamiana; settings: 100 μg/mL BFA at 6 h before imaging; tobacco leaves
Protocol: as §3

actin structures = assay: Effects of chemicals on cellular structures: actin marker tdTomato-ABD2; type: cell-based, N. benthamiana; settings: 20 μM cytochalasin D at 6 h before imaging; tobacco leaves
Protocol: as §3

[3] = colchicine 500 μM, cytochalasin D 20 μM, brefeldin A 100 μg/mL

SMILES: O=S(=O)(c1cccc2c(I)cccc12)N1CCCNCC1 [ML-7]
- effect on VirE2 movement ([1]; 100 μM ML-7 infiltrated 4 h before imaging, control 1% DMSO, FIG. 4): obviously stops
- decrease of average rate of the movement of the VirE2 compared with control group ([1]; 100 μM ML-7 infiltrated 4 h before imaging, control 1% DMSO, FIG. 4b): 95%
- transformation efficiency (tumorigenesis) [2]: significantly reduced
- growth of root segments (root segments): did not affect
- Agrobacterium growth (Agrobacterium): did not inhibit

SMILES: COc1cc2c(c(OC)c1OC)-c1ccc(OC)c(=O)cc1[C@@H](NC(C)=O)CC2 [colchicine]
- average velocity of VirE2 movement, relative to the control ([1]; colchicine 500 μM, cytochalasin D 20 μM, brefeldin A 100 μg/mL, 6 h before observation, over 20 events per treatment, FIG. 1c): over 60%
- effect on VirE2 trafficking [1, 3]: minor effect; also recorded: did not affect the VirE2 trafficking significantly
- effect on microtubule structure (microtubule): disrupted

SMILES: C[C@H]1CCC/C=C/[C@@H]2C[C@H](O)C[C@H]2[C@H](O)/C=C/C(=O)O1 [brefeldin A]
- effect on VirE2 trafficking [1, 3]: severely affected
- effect on ER structure (ER): disrupted

SMILES: C=C1[C@@H](C)[C@H]2[C@H](Cc3ccccc3)NC(=O)[C@]23[C@H](OC(C)=O)/C=C/[C@@](C)(O)C(=O)[C@@H](C)C/C=C/[C@H]3[C@@H]1O [cytochalasin D]
- effect on VirE2 trafficking [1, 3]: severely affected
- effect on VirE2 trafficking ([1]; colchicine 500 μM, cytochalasin D 20 μM, brefeldin A 100 μg/mL, listed as CytoD): stop the VirE2 movement
- effect on actin structure (actin structures): disrupted

SMILES: CC(=O)N1CCN(c2ccc(OCC3COC(Cn4ccnc4)(c4ccc(Cl)cc4Cl)O3)cc2)CC1 (centres unmarked) [Ketoconazole]
- effect on real-time movement process of protein VirE2-GFP [1]: does not affect
- toxicity as judged from VirE2-GFP movement [1]: less toxic

SMILES: Clc1ccc(COC(Cn2ccnc2)c2ccc(Cl)cc2Cl)cc1 (centres unmarked) [Econazole]
- effect on real-time movement process of protein VirE2-GFP [1]: significantly affects
- toxicity as judged from VirE2-GFP movement [1]: highly toxic
